Measured values from US12435091B2, “RNA-binding protein multimerization inhibitors and methods of use thereof” (THE UAB RESEARCH FOUNDATION, priority 2020, dated 2025).

How the values were obtained:
[1] = system: Bcl2 and Mcl1 mRNAs in U87 cell line; assay: Taqman quantification of Bcl2/18S and Mcl1/18S mRNA; type: cell-based; details: U87, 10 uM for 24 hours
Experimental: The HuR-mRNA co-immunoprecipitation (IP) was performed by utilizing RiboCluster Profiler RIP-assay Kit (MBL International). The quantifications of Bcl2, and 18S transcripts were performed using Taqman technique with the following gene-specific probes: Hs00153350_m1, Hs03003631_g1, and Hs00766187_m1 (ThermoFisher Scientific) for Bcl2, 18S, and Mcl1, respectively.
mRNA isolation and purification from adherent cells were performed using RNeasy Mini Kit and QIAshredder columns (Qiagen, Valencia, CA).
HuR protein plays a significant role in the stabilization of the mRNAs of the anti-apoptotic Bcl2-family, which contributes to the protection of genetically unstable glioma cells from apoptosis. Therefore, the Bcl2 family was evaluated in the established and PDGx cell lines after cell treatment with SRI-41664 or SRI-42127 compounds. […] The protein levels of Bcl2 and Mcl1 were evaluated in the established U251 and PDGx XD456 glioma cell lines in the control (vehicle treatment) and after treatment with SRI-41664 or SRI-42127 compounds for 48 hours.

[2] = system: JX12p neurospheres, HuR mRNA targets; assay: Illumina global RNA-sequencing of PDGx neurospheres; type: cell-based; details: 3 uM, 12 hours, compared to control
Experimental: (§1) Illumina global RNA-sequencing data were generated by utilizing PDGx neurospheres, which have been treated with a compound as described herein (e.g., SRI-42127, 3 uM) for 12 hours or with vehicle as the control. RNA was isolated by using TRIzol reagent (Invitrogen; Carlsbad, CA). The RNA samples were processed.
(§2) RNA sequencing was performed on PDGx-derived glioma neurospheres representing the different molecular subtypes (classical, neuronal, and mesenchymal) after treatment with vehicle (control) or SRI-42127 (3 uM) for 12 hours. Analysis of direct HuR mRNA targets and their corresponding cell signaling pathways was performed. Table 9 illustrates the evaluated gene sets, representing direct HuR mRNA targets, and their corresponding cell signaling pathways.
(§3) The analysis of direct HuR mRNA targets and their corresponding cell signaling pathways has been performed by using gene sets, which have been defined as the direct HuR targets following tumor neurosphere treatment with DHTS, an established modulator of HuR/mRNA interaction (Lal et al., Nucleic Acid Research, 2017). […] Data are represented as average+standard deviation (Aver+SD). The significance was evaluated by using Student t-test.
(§4) The analysis was generated based on RNA-Seq data.

[3] = system: X14P neurospheres, HuR mRNA targets; assay: as above; type: cell-based; details: 3 uM, 12 hours, compared to control
Experimental: as §1, §2, §3, §4

[4] = system: XD456 neurospheres, HuR mRNA targets; assay: as above; type: cell-based; details: 3 uM, 12 hours, compared to control
Experimental: as §1, §2, §3, §4

[5] = system: HuR cytoplasmic translocation in primary microglial cells; assay: Imagestream single cell flow cytometry of HuR location in LPS-activated microglia; type: cell-based, mouse; details: 1 μM
Experimental: Cultured primary microglial cells isolated from neonatal mouse brain were treated with LPS to achieve activation. Cells were then treated with varying doses of SRI-42127 or vehicle. Imagestream single cell flow cytometry was used to track the location of HuR within microglial cells as depicted in FIG. 11, Panel A. DAPI was used as a flow marker for nuclear localization. For each cell, the percentage of HuR immunofluorescence that colocalized with the nuclear compartment versus the cytoplasmic compartment was quantified.
In the unstimulated state (DMSO), the characteristic nuclear predominance of HuR was observed as reflected by a low percentage of cells with high HuR in the cytoplasm. With LPS stimulation, there was an ˜8-fold increase in the percent of cells with high levels of HuR in the cytoplasm (˜60%). With SRI-42127 treatment, there was a significant dose-dependent decrease in cells with high cytoplasmic HuR. At 1 μM of SRI-42127, the percent of cells with high HuR was similar to resting (unactivated) microglia (˜10%).

CN(c1ccc2ncc(-c3ccc4cn[nH]c4c3)n2n1)C1CCOCC1 [Compound 19]
decrease of Bcl2/18S mRNA ratio [1]: 95±2% | decrease of Mcl1/18S mRNA ratio [1]: 86±7% | gene set average value, Activation of BH3-only proteins Homo sapiens_R-HSA-114452 [2]: 0.90 | gene set average value, Cell Cycle Check points_Homo Sapiens_R-HSA-69620 [2]: 0.58 | gene set average value, Cell Cycle, Mitotic_Homo Sapiens_R-HSA-69278 [2]: 0.58 | gene set average value, Cell Cycle_Homo sapiens_R-HSA-1640170 [2]: 0.57 | gene set average value, Cell cycle_Homo Sapiens_hsa04110 [2]: 0.64 | gene set average value, Cellular Senescence_Homo sapiens_R-HSA-2559583 [2]: 0.74 | gene set average value, Cellular responses to Stress_Homo sapiens_R-HSA-2262752 [2]: 0.61 | gene set average value, Deadenylation-dependent mRNA decay_Homo sapiens_R-HSA-429914 [2]: 0.71 | gene set average value, Developmental Biology_Homo sapiens_R-HSA-1266738 [2]: 0.52 | gene set average value, Epstein-Barr virus Infection_Homo Sapiens_hsa05169 [2]: 0.63 | gene set average value, G2/M Check points_Homo sapiens_R-HSA-69481 [2]: 0.60 | gene set average value, G2/M DNA damage Checkpoint_Homo sapiens_R-HSA-69473 [2]: 0.61 | gene set average value, Gene Expression_Homo Sapiens_R-HSA-2559583 [2]: 0.78 | gene set average value, HTLV-1 infection_Homo Sapiens_hsa05186 [2]: 0.67 | gene set average value, Intrinsic Pathway for Apoptosis_Homo sapiens_R-HSA-109606 [2]: 0.90 | gene set average value, MAPK signaling Pathway_Homo Sapiens_hsa04010 [2]: 0.63 | gene set average value, Membrane Trafficking_Homo sapiens_R-HAS-199991 [2]: 0.62 | gene set average value, Mitotic G1-G1/S phases_Homo sapiens_R-HSA-453279 [2]: 0.58 | gene set average value, P53 signaling pathway_Homo Sapiens_hsa04115 [2]: 1.21 | gene set average value, RHO GTPases Activate Formins_Homo sapiens_R-HSA-5663220 [2]: 0.48 | gene set average value, RHO GTPases Effectors_Homo sapiens_R-HSA-195258 [2]: 0.50 | gene set average value, RNA degradation_Homo Sapiens_hsa03018 [2]: 0.78 | gene set average value, Regulation of TP53 Activity through Phosphorylation_Homo sapiens_R-HSA-6804756 [2]: 0.63 | gene set average value, Regulation of TP53 Activity_Homo sapiens_R-HSA-109606 [2]: 0.89 | gene set average value, Signaling by Rho GTPases_Homo sapiens_R-HSA-194315 [2]: 0.49 | gene set average value, TP53 Regulates Metabolic Genes_Homo sapiens_R-HSA-5628897 [2]: 0.87 | gene set average value, Transcriptional Regulation by TP53_Homo sapiens_R-HSA-3700989 [2]: 0.93 | gene set average value, Translocation of GLUT4 to the plasma membrane_Homo sapiens_R-HSA-1445148 [2]: 0.71 | gene set average value, Activation of BH3-only proteins Homo sapiens_R-HSA-114452 [3]: 1.03 | gene set average value, Cell Cycle Check points_Homo Sapiens_R-HSA-69620 [3]: 0.77 | gene set average value, Cell Cycle, Mitotic_Homo Sapiens_R-HSA-69278 [3]: 0.80 | gene set average value, Cell Cycle_Homo sapiens_R-HSA-1640170 [3]: 0.74 | gene set average value, Cell cycle_Homo Sapiens_hsa04110 [3]: 0.99 | gene set average value, Cellular Senescence_Homo sapiens_R-HSA-2559583 [3]: 0.99 | gene set average value, Cellular responses to Stress_Homo sapiens_R-HSA-2262752 [3]: 0.74 | gene set average value, Deadenylation-dependent mRNA decay_Homo sapiens_R-HSA-429914 [3]: 1.03 | gene set average value, Developmental Biology_Homo sapiens_R-HSA-1266738 [3]: 0.65 | gene set average value, Epstein-Barr virus Infection_Homo Sapiens_hsa05169 [3]: 1.0 | gene set average value, G2/M Check points_Homo sapiens_R-HSA-69481 [3]: 0.82 | gene set average value, G2/M DNA damage Checkpoint_Homo sapiens_R-HSA-69473 [3]: 0.82 | gene set average value, Gene Expression_Homo Sapiens_R-HSA-2559583 [3]: 0.95 | gene set average value, HTLV-1 infection_Homo Sapiens_hsa05186 [3]: 0.89 | gene set average value, Intrinsic Pathway for Apoptosis_Homo sapiens_R-HSA-109606 [3]: 1.03 | gene set average value, MAPK signaling Pathway_Homo Sapiens_hsa04010 [3]: 1.0 | gene set average value, Membrane Trafficking_Homo sapiens_R-HAS-199991 [3]: 0.86 | gene set average value, Mitotic G1-G1/S phases_Homo sapiens_R-HSA-453279 [3]: 1.00 | gene set average value, P53 signaling pathway_Homo Sapiens_hsa04115 [3]: 1.9 | gene set average value, RHO GTPases Activate Formins_Homo sapiens_R-HSA-5663220 [3]: 0.62 | gene set average value, RHO GTPases Effectors_Homo sapiens_R-HSA-195258 [3]: 0.70 | gene set average value, RNA degradation_Homo Sapiens_hsa03018 [3]: 1.97 | gene set average value, Regulation of TP53 Activity through Phosphorylation_Homo sapiens_R-HSA-6804756 [3]: 0.58 | gene set average value, Regulation of TP53 Activity_Homo sapiens_R-HSA-109606 [3]: 0.94 | gene set average value, Signaling by Rho GTPases_Homo sapiens_R-HSA-194315 [3]: 0.65 | gene set average value, TP53 Regulates Metabolic Genes_Homo sapiens_R-HSA-5628897 [3]: 1.03 | gene set average value, Transcriptional Regulation by TP53_Homo sapiens_R-HSA-3700989 [3]: 1.04 | gene set average value, Translocation of GLUT4 to the plasma membrane_Homo sapiens_R-HSA-1445148 [3]: 0.92 | gene set average value, Activation of BH3-only proteins Homo sapiens_R-HSA-114452 [4]: 0.94 | gene set average value, Cell Cycle Check points_Homo Sapiens_R-HSA-69620 [4]: 0.48 | gene set average value, Cell Cycle, Mitotic_Homo Sapiens_R-HSA-69278 [4]: 0.54 | gene set average value, Cell Cycle_Homo sapiens_R-HSA-1640170 [4]: 0.52 | gene set average value, Cell cycle_Homo Sapiens_hsa04110 [4]: 0.60 | gene set average value, Cellular Senescence_Homo sapiens_R-HSA-2559583 [4]: 0.64 | gene set average value, Cellular responses to Stress_Homo sapiens_R-HSA-2262752 [4]: 0.53 | gene set average value, Deadenylation-dependent mRNA decay_Homo sapiens_R-HSA-429914 [4]: 0.58 | gene set average value, Developmental Biology_Homo sapiens_R-HSA-1266738 [4]: 0.49 | gene set average value, Epstein-Barr virus Infection_Homo Sapiens_hsa05169 [4]: 0.49 | gene set average value, G2/M Check points_Homo sapiens_R-HSA-69481 [4]: 0.47 | gene set average value, G2/M DNA damage Checkpoint_Homo sapiens_R-HSA-69473 [4]: 0.50 | gene set average value, Gene Expression_Homo Sapiens_R-HSA-2559583 [4]: 0.63 | gene set average value, HTLV-1 infection_Homo Sapiens_hsa05186 [4]: 0.61 | gene set average value, Intrinsic Pathway for Apoptosis_Homo sapiens_R-HSA-109606 [4]: 0.94 | gene set average value, MAPK signaling Pathway_Homo Sapiens_hsa04010 [4]: 0.54 | gene set average value, Membrane Trafficking_Homo sapiens_R-HAS-199991 [4]: 0.53 | gene set average value, Mitotic G1-G1/S phases_Homo sapiens_R-HSA-453279 [4]: 0.61 | gene set average value, P53 signaling pathway_Homo Sapiens_hsa04115 [4]: 1.19 | gene set average value, RHO GTPases Activate Formins_Homo sapiens_R-HSA-5663220 [4]: 0.48 | gene set average value, RHO GTPases Effectors_Homo sapiens_R-HSA-195258 [4]: 0.50 | gene set average value, RNA degradation_Homo Sapiens_hsa03018 [4]: 0.65 | gene set average value, Regulation of TP53 Activity through Phosphorylation_Homo sapiens_R-HSA-6804756 [4]: 0.35 | gene set average value, Regulation of TP53 Activity_Homo sapiens_ [4]: 0.44 | gene set average value, Signaling by Rho GTPases_Homo sapiens_R-HSA-194315 [4]: 0.45 | gene set average value, TP53 Regulates Metabolic Genes_Homo sapiens_R-HSA-5628897 [4]: 0.54 | gene set average value, Transcriptional Regulation by TP53_Homo sapiens_R-HSA-3700989 [4]: 0.64 | gene set average value, Translocation of GLUT4 to the plasma membrane_Homo sapiens_R-HSA-1445148 [4]: 0.53 | percent of cells with high cytoplasmic HuR [5]: ~10%
